Values after ≈ are worked out from the molar mass of the structure shown. Where two headings read alike, the source gives them in different places.
How the values were obtained:
[1] = tested on: E. coli MG1655 reporter cells; type: cell-based, Escherichia coli; conditions: for Lag before ATP release (shortest, incompressible value): highest concentrations tested
Procedure: The classical luciferase was from Molecular Probes (ATP Determination Kit (A22066)). The thermostable luciferase was from “CheckLite AT100” (kikkoman). The Luciferin-luciferase reagents were prepared following manufacturer instructions. Bacteria from exponentially growing cultures (OD600=0.3) were added to each well (60 μl/well) of a black 96-microtiter plate (Greiner Bio-one, 655076) and 20 μl of the luciferin-luciferase reagent solution was added. The microtiter plate was incubated 5 min at 37° C. for reaction with the luciferase to eliminate traces of extracellular ATP. Then 40 μl of antibiotic solution (3 times concentrated) prepared in the culture medium were added. Bioluminescence of each well was monitored for 4 hours under shaking (218 rpm) and at 28 or 37° C., depending on the experiments (see legends of Figures). The reagent stability in presence or absence of antibiotics was checked in control experiments without bacteria but with 4 pmoles of ATP. Tests were also performed in 384-microtiter plates (Greiner Bio-one, 784076).
Aminoglycosides are bactericidal antibiotics causing translational miscoding with lethal consequences for the cell. Leakage of small molecules following an aminoglycoside shock was previously identified by different methods including radiolabelling. Therefore, the inventors investigated the response of live cells to aminoglycoside stress.

[2] = tested on: Escherichia coli MG1655; experiment: Antibiotic MIC determination (serial twofold dilutions, OD600 during 17 hours at 37° C.); type: cell-based; conditions: Escherichia coli, 37° C.
Procedure: The Minimal Inhibitory Concentration (MIC) of the antibiotics was determined under the same culture conditions as the tests using the ATP assay kit. […] An exponentially growing culture (OD600=0.3) was added to each well (60 μl/well) of a sterile microtiter plate containing the test concentration of antibiotic (40 μl/well). The volume was completed to 120 μl with medium and OD600 nm measurements were performed using a microtiter plate reader (Infinite 200 PRO, TECAN) during 17 hours at 37° C.
In all the following experiments, the MIC values were measured for each antibiotic with parameters such as temperature, OD600 and equipment identical to those used for the bioluminescence assay.

[3] = antibiotic at 3.125 μg/mL, LB, 37° C.
[4] = antibiotic at 6.25 μg/mL, LB, 37° C.
[5] = antibiotic at 12.5 μg/mL, LB, 37° C.
[6] = antibiotic at 25 μg/mL, LB, 37° C.
[7] = antibiotic at 50 μg/mL, LB, 37° C.
[8] = MG1655, read-out: MIC in MOPS glucose 0.4%, MOPS minimal medium glucose 0.4%
[9] = MG1655, LB medium, OD600 0.15 final, read-out: MIC in LB
[10] = antibiotic at 100 μg/mL, LB, 37° C.
[11] = antibiotic at 200 μg/mL, LB, 37° C.

SMILES	Lag time before ATP [1, 5]	Lag time before ATP [1, 6]	Lag time before ATP [1, 7]	MIC [2, 8]	MIC [2, 9]	also measured
NCC[C@H](O)C(=O)N[C@@H]1C[C@H](N)[C@@H](O[C@H]2O[C@H](CN)[C@@H](O)[C@H](O)[C@H]2O)[C@H](O)[C@H]1O[C@H]1O[C@H](CO)[C@@H](O)[C@H](N)[C@H]1O [Amikacin]	21.6 min	16.0 min	10.5 min	1.56 µg/mL (≈ 2.66 µM)	12.5 µg/mL (≈ 21.3 µM)	Shape of ATP release trace ([1]; LB medium, 37° C., FIG. 8): bi-phasic; Lag time before ATP [1, 3]: 42 min; Lag time before ATP [1, 4]: 31.0 min
CC1(C)S[C@@H]2[C@H](NC(=O)[C@H](N)c3ccc(O)cc3)C(=O)N2[C@H]1C(=O)O [Amoxicillin]	11.4 min	8 min	6.9 min	12.5 µg/mL (≈ 34.2 µM)	12.5 µg/mL (≈ 34.2 µM)	Lag time before ATP [1, 3]: 39.3 min; Lag time before ATP [1, 4]: 31.4 min
CC1(C)S[C@@H]2[C@H](NC(=O)[C@H](N)c3ccccc3)C(=O)N2[C@H]1C(=O)O [Ampicillin]	43 min	23 min	13 min	25 µg/mL (≈ 71.5 µM)	25 µg/mL (≈ 71.5 µM)	Shape of ATP release trace ([1]; LB medium, 37° C., FIG. 8): multiphasic; Intensity of ATP release signal in minimal medium compared to rich medium (factor of decrease) ([1]; MOPS minimal medium vs LB): 10; Lag time before ATP [1, 4]: 108 min; Lag time before ATP [1, 10]: 9 min; Lag before ATP release (shortest, incompressible value) ([1]; LB, 37° C.): 9 min
CN[C@@H]1[C@@H](O[C@H]2O[C@H](CO)[C@@H](N)[C@H](O)[C@H]2O)OC2C[C@@H](N)[C@@H](O[C@H]3[C@H](O)[C@@H](O)[C@H](N)C[C@@H]3N)OC2[C@@H]1O (some centres unmarked) [Apramycin]	–	–	–	2.5 µg/mL (≈ 4.63 µM)	20.2 µg/mL (≈ 37.4 µM)	Shape of ATP release trace ([1]; LB medium, 37° C., FIG. 8): bi-phasic; Shape of ATP release trace ([1]; MOPS minimal medium (glucose 0.4%), FIG. 11): monophasic; Lag time before ATP ([1]; antibiotic at 6.75 μg/mL, LB, 37° C.): 60.9 min; Lag time before ATP ([1]; antibiotic at 13.5 μg/mL, LB, 37° C.): 30.0 min; Lag time before ATP ([1]; antibiotic at 27 μg/mL, LB, 37° C.): 13.3 min; Lag time before ATP ([1]; antibiotic at 54 μg/mL, LB, 37° C.): 10.9 min; Lag before ATP release (shortest, incompressible value) ([1]; LB, 37° C.): ~10.9 min
CC[C@H]1OC(=O)[C@H](C)[C@@H](O[C@H]2C[C@@](C)(OC)[C@@H](O)[C@H](C)O2)[C@H](C)[C@@H](O[C@@H]2O[C@H](C)C[C@H](N(C)C)[C@H]2O)[C@](C)(O)C[C@@H](C)CN(C)[C@H](C)[C@@H](O)[C@]1(C)O [Azithromycin]	–	–	–	125 µg/mL (≈ 167 µM)	175 µg/mL (≈ 234 µM)	High dose at which ATP release was observed ([1]; LB, FIG. 9): 2.5 times the MIC; ATP leakage ([1]; highest concentration (400 μg/mL), MOPS minimal medium (glucose 0.4%)): stimulated a ATP leakage
C=CC1=C(C(=O)O)N2C(=O)[C@@H](NC(=O)/C(=N\OCC(=O)O)c3csc(N)n3)[C@H]2SC1 [Cefixime]	17.5 min	16.7 min	15.2 min	50 µg/mL (≈ 110 µM)	50 µg/mL (≈ 110 µM)	Lag time before ATP [1, 10]: 14.9 min; Lag time before ATP [1, 11]: 14.2 min
CO[C@@]1(NC(=O)Cc2cccs2)C(=O)N2C(C(=O)O)=C(COC(N)=O)CS[C@@H]21 [Cefoxitin]	10.9 min	6.1 min	4.9 min	100 µg/mL (≈ 234 µM)	50 µg/mL (≈ 117 µM)	Lag time before ATP [1, 10]: 4.9 min; Lag time before ATP [1, 11]: 4.9 min
O=C(O)c1cn(C2CC2)c2cc(N3CCNCC3)c(F)cc2c1=O [Ciprofloxacin]	–	–	–	6.25 µg/mL (≈ 18.9 µM)	25 µg/mL (≈ 75.4 µM)	–
O=C1CN(/N=C/c2ccc([N+](=O)[O-])o2)C(=O)N1 [Nitrofurantoin]	–	–	–	50 µg/mL (≈ 210 µM)	50 µg/mL (≈ 210 µM)	–
CO[C@@H]1[C@@H](OC(N)=O)[C@@H](O)[C@H](Oc2ccc3c(O)c(NC(=O)c4ccc(O)c(CC=C(C)C)c4)c(=O)oc3c2C)OC1(C)C [Novobiocin]	–	–	–	–	200 µg/mL (≈ 326 µM)	–
CCN1CCN(C(=O)N[C@@H](C(=O)N[C@@H]2C(=O)N3[C@@H]2SC(C)(C)[C@@H]3C(=O)O)c2ccccc2)C(=O)C1=O [Piperacillin]	–	–	–	–	200 µg/mL (≈ 386 µM)	–
Cc1cc(NS(=O)(=O)c2ccc(N)cc2)no1 [Sulfamethoxazole]	–	–	–	1600 µg/mL (≈ 6320 µM)	–	–
